In brackets after ≈: the same amount, converted by molar mass.

For the first experiment, the system named is S.lutea UC-130. Description: Dipped disc agar diffusion assay, S. lutea. The conditions noted are these: Micrococcus luteus, UC130, 16 h, read-out: Agar Diffusion 1 mg./ml. S.lutea UC-130 (inhibition zone). (A growth-free zone around the sample is the usual read-out of agar diffusion tests.)
As for `COC1CC2C=CC3C4OC2(C(C)=CC(C)C(C(C)O)OC1=O)C3C(O)C(C)C4OC(=O)c1ccncc1` (stereo not drawn) [U-60,925, 9-O--Isonicotinoyl], the zone of inhibition at 1000 µg/mL was 38 mm.

Regarding `COC1CC2C=CC3C4OC2(C(C)=CC(C)C(C(C)O)OC1=O)C3C(O)C(C)C4OC(=O)c1cccn1C` (stereo not drawn) [U-60,988, 9-O--N--Methylpyrrole-2-carbonyl-], the zone of inhibition at 1000 µg/mL came out at 24 mm.

With `COC1CC2C=CC3C4OC2(C(C)=CC(C)C(C(C)O)OC1=O)C3C(O)C(C)C4OC(=O)c1ccc([N+](=O)[O-])o1` (stereo not drawn) [U-60,990, 9-O--5-Nitrofuroyl], the zone of inhibition at 1000 µg/mL is 33 mm.

Turning to `COC1CC2C=CC3C4OC2(C(C)=CC(C)C(C(C)O)OC1=O)C3C(O)C(C)C4OC(=O)c1cnccn1` (stereo not drawn) [U-61,264, 9-O--Pyrrazine-2-carbonyl], the zone of inhibition at 1000 µg/mL was 27 mm.

`COC1CC2C=CC3C4OC2(C(C)=CC(C)C(C(C)O)OC1=O)C3C(O)C(C)C4OC(=O)c1ccc([N+](=O)[O-])[nH]1` (stereo not drawn) [U-61,427, 9-O--5-Nitropyrrole-2-carbonyl-]: the zone of inhibition at 1000 µg/mL was found to be 32 mm.

Take `COC1CC2C=CC3C4OC2(C(C)=CC(C)C(C(C)O)OC1=O)C3C(O)C(C)C4OC(=O)c1ccc(Br)o1` (stereo not drawn) [U-61,463, 9-O--5-Bromofuroyl-]: the zone of inhibition at 1000 µg/mL was determined as 35 mm.

For the next experiment, the system named is S.aureus UC 80. The experiment can be described thus: Dipped disc agar diffusion assay, S. aureus. The conditions noted are these: Staphylococcus aureus, UC80, 16 h, read-out: Agar Diffusion 1 mg./ml. S.aureus UC 80 (inhibition zone).
Consider `COC1CC2C=CC3C4OC2(C(C)=CC(C)C(C(C)O)OC1=O)C3C(O)C(C)C4OC(=O)c1ccc(Br)o1` (stereo not drawn) [U-61,463, 9-O--5-Bromofuroyl-], for which the zone of inhibition at 1000 µg/mL came to 0 mm.

The test system of a further experiment is S.aureus UC-76. Description: Minimum Inhibitory Concentration, microplate broth-dilution, S. aureus UC-76. The conditions noted are these: Staphylococcus aureus, UC76, read-out: MIC S.aureus UC-76.
What is called MIC is the lowest concentration that inhibits growth of the organism. Consider `COC1CC2C=CC3C4OC2(C(C)=CC(C)C(C(C)O)OC1=O)C3C(O)C(C)C4OC(=O)c1ccncc1` (stereo not drawn) [U-60,925, 9-O--Isonicotinoyl], for which the MIC came to 250 µg/mL (≈ 474 µM).

Turning to `COC1CC2C=CC3C4OC2(C(C)=CC(C)C(C(C)O)OC1=O)C3C(O)C(C)C4OC(=O)c1ccc([N+](=O)[O-])o1` (stereo not drawn) [U-60,990, 9-O--5-Nitrofuroyl], the MIC worked out at 31.2 µg/mL (≈ 55.6 µM).

As to `COC1CC2C=CC3C4OC2(C(C)=CC(C)C(C(C)O)OC1=O)C3C(O)C(C)C4OC(=O)c1cnccn1` (stereo not drawn) [U-61,264, 9-O--Pyrrazine-2-carbonyl], the MIC is above 125 µg/mL.

Staying with this experiment, now noted: Staphylococcus aureus, UC76, read-out: MIC S.aureus UC-76, BHI broth; sensitive strain.
As to `COC1CC2C=CC3C4OC2(C(C)=CC(C)C(C(C)O)OC1=O)C3C(O)C(C)C4OC(=O)c1cccn1C` (stereo not drawn) [U-60,988, 9-O--N--Methylpyrrole-2-carbonyl-], the MIC was 250 µg/mL (≈ 472 µM).

For the compound `COC1CC2C=CC3C4OC2(C(C)=CC(C)C(C(C)O)OC1=O)C3C(O)C(C)C4OC(=O)c1ccc([N+](=O)[O-])[nH]1` (stereo not drawn) [U-61,427, 9-O--5-Nitropyrrole-2-carbonyl-], the minimal inhibitory concentration (MIC) came out at 125 µg/mL (≈ 223 µM).

The next experiment relates to S.aureus UC-570. Description: Minimum Inhibitory Concentration, microplate broth-dilution, S. aureus UC-570. The following applies: Staphylococcus aureus, UC570, read-out: MIC S.aureus UC-570.
Take `COC1CC2C=CC3C4OC2(C(C)=CC(C)C(C(C)O)OC1=O)C3C(O)C(C)C4OC(=O)c1ccncc1` (stereo not drawn) [U-60,925, 9-O--Isonicotinoyl]: the MIC worked out at 250 µg/mL (≈ 474 µM).

In the case of `COC1CC2C=CC3C4OC2(C(C)=CC(C)C(C(C)O)OC1=O)C3C(O)C(C)C4OC(=O)c1ccc([N+](=O)[O-])o1` (stereo not drawn) [U-60,990, 9-O--5-Nitrofuroyl], the MIC is 31.2 µg/mL (≈ 55.6 µM).

Consider `COC1CC2C=CC3C4OC2(C(C)=CC(C)C(C(C)O)OC1=O)C3C(O)C(C)C4OC(=O)c1cnccn1` (stereo not drawn) [U-61,264, 9-O--Pyrrazine-2-carbonyl], for which the MIC was above 125 µg/mL.

Staying with this experiment, now noted: Staphylococcus aureus, UC570, read-out: MIC S.aureus UC-570, BHI broth; sensitive strain.
With `COC1CC2C=CC3C4OC2(C(C)=CC(C)C(C(C)O)OC1=O)C3C(O)C(C)C4OC(=O)c1cccn1C` (stereo not drawn) [U-60,988, 9-O--N--Methylpyrrole-2-carbonyl-], the MIC was above 250 µg/mL.

With `COC1CC2C=CC3C4OC2(C(C)=CC(C)C(C(C)O)OC1=O)C3C(O)C(C)C4OC(=O)c1ccc([N+](=O)[O-])[nH]1` (stereo not drawn) [U-61,427, 9-O--5-Nitropyrrole-2-carbonyl-], the MIC came out at 250 µg/mL (≈ 446 µM).

The next experiment deals with S.aureus UC-746. Description: Minimum Inhibitory Concentration, microplate broth-dilution, S. aureus UC-746. The conditions noted are these: Staphylococcus aureus, UC746, read-out: MIC S.aureus UC-746.
In the case of `COC1CC2C=CC3C4OC2(C(C)=CC(C)C(C(C)O)OC1=O)C3C(O)C(C)C4OC(=O)c1ccncc1` (stereo not drawn) [U-60,925, 9-O--Isonicotinoyl], the MIC came out at 250 µg/mL (≈ 474 µM).

As to `COC1CC2C=CC3C4OC2(C(C)=CC(C)C(C(C)O)OC1=O)C3C(O)C(C)C4OC(=O)c1ccc([N+](=O)[O-])o1` (stereo not drawn) [U-60,990, 9-O--5-Nitrofuroyl], the MIC turned out to be 62.5 µg/mL (≈ 111 µM).

`COC1CC2C=CC3C4OC2(C(C)=CC(C)C(C(C)O)OC1=O)C3C(O)C(C)C4OC(=O)c1cnccn1` (stereo not drawn) [U-61,264, 9-O--Pyrrazine-2-carbonyl]: the MIC is above 125 µg/mL.

The same experiment, now with this note: Staphylococcus aureus, UC746, read-out: MIC S.aureus UC-746, BHI broth; strain resistant to tetracycline.
As for `COC1CC2C=CC3C4OC2(C(C)=CC(C)C(C(C)O)OC1=O)C3C(O)C(C)C4OC(=O)c1cccn1C` (stereo not drawn) [U-60,988, 9-O--N--Methylpyrrole-2-carbonyl-], the MIC is 250 µg/mL (≈ 472 µM).

Regarding `COC1CC2C=CC3C4OC2(C(C)=CC(C)C(C(C)O)OC1=O)C3C(O)C(C)C4OC(=O)c1ccc([N+](=O)[O-])[nH]1` (stereo not drawn) [U-61,427, 9-O--5-Nitropyrrole-2-carbonyl-], the MIC stood at 125 µg/mL (≈ 223 µM).

The subject of the next experiment is S.pyrogenes UC-152. The experiment can be described thus: Minimum Inhibitory Concentration, microplate broth-dilution, S. pyrogenes UC-152. The following applies: read-out: MIC S.pyrogenes UC-152.
On to `COC1CC2C=CC3C4OC2(C(C)=CC(C)C(C(C)O)OC1=O)C3C(O)C(C)C4OC(=O)c1ccncc1` (stereo not drawn) [U-60,925, 9-O--Isonicotinoyl], for which the MIC was above 250 µg/mL.

As to `COC1CC2C=CC3C4OC2(C(C)=CC(C)C(C(C)O)OC1=O)C3C(O)C(C)C4OC(=O)c1ccc([N+](=O)[O-])o1` (stereo not drawn) [U-60,990, 9-O--5-Nitrofuroyl], the MIC was 125 µg/mL (≈ 223 µM).

As to `COC1CC2C=CC3C4OC2(C(C)=CC(C)C(C(C)O)OC1=O)C3C(O)C(C)C4OC(=O)c1cnccn1` (stereo not drawn) [U-61,264, 9-O--Pyrrazine-2-carbonyl], the MIC is above 125 µg/mL.

Staying with this experiment, now noted: read-out: MIC S.pyrogenes UC-152, BHI broth.
As for `COC1CC2C=CC3C4OC2(C(C)=CC(C)C(C(C)O)OC1=O)C3C(O)C(C)C4OC(=O)c1cccn1C` (stereo not drawn) [U-60,988, 9-O--N--Methylpyrrole-2-carbonyl-], the MIC amounted to 125 µg/mL (≈ 236 µM).

As to `COC1CC2C=CC3C4OC2(C(C)=CC(C)C(C(C)O)OC1=O)C3C(O)C(C)C4OC(=O)c1ccc([N+](=O)[O-])[nH]1` (stereo not drawn) [U-61,427, 9-O--5-Nitropyrrole-2-carbonyl-], the MIC was determined as 250 µg/mL (≈ 446 µM).

The values are drawn from patent publication US4363922A, “Esters of antibiotic nodusmicin” (priority 1981, dated 1982).
